One assay concerns the target CSK protein (Homo sapiens (Human), UniProt P41240). Nature of the assay: CSK Inhibition Assay. Format: biochemical. On the procedure: Test compound was dissolved in DMSO at 10 mM. 45 uL of compound was transferred into a 384-well compound source plate (LABCYTE cat #P-05525) and serially diluted at 1:3 ratio to create a 11-point dilutions. The same volume of DMSO was adopted as high control. 20 nL of these compounds DMSO dilutes were dispensed into a new 384-well assay plate by Echo 550. […] 15 uL of kinase assay buffer containing CSK protein and substrate was transferred to assay plate and incubated at RT for 30 minutes. Kinase assay buffer supplemented with substrate peptides was employed as low control to monitor the background. 4 μM of ATP was prepared in kinase assay buffer and 5 μL of ATP solution was added to each well to start the reaction. The assay plate was incubated at 25° C. for 90 minutes and the reaction was stopped by adding 40 μL of 0.5 M EDTA.
(§1) Phosphorylated fluorescent-tagged peptides were differentiated from non-phosphorylated peptides by separating using Caliper EZ Reader II and the detection was directly converted to conversion ratio.
(§2) For estimation of IC50, the % substrate conversion values are transformed to % Inhibition Ratio by applying the following equation: […]

In another assay the target is LCK protein (Homo sapiens (Human), UniProt P06239). Nature of the assay: LCK Inhibition Assay. Format: biochemical. On the procedure: Test compound was dissolved in DMSO at 10 mM. 45 uL of compound was transfer into a 384-well compound source plate (LABCYTE cat #P-05525) and serially diluted at 1:3 ratio to create a 11-point dilutions. The same volume of DMSO was adopted as high control. 20 nL of these compounds DMSO dilutes were dispensed into a new 384-well assay plate by Echo 550. LCK protein (0.50 nM, Cama Biosciences, cat #08-170), florescent labeled substrate FLPeptide4 (2 μM, PerkinElmer, cat #760348) was prepared in kinase assay buffer (50 mM HEPES (pH 7.5), 10 mM MgCl2, 0.01% Brij-35, 2 mM DTT and 0.005 mg/ml BSA). 15 uL of kinase assay buffer containing LCK protein and substrate was transferred to assay plate and incubate at RT for 30 minutes. Kinase assay buffer supplemented with substrate peptides was employed as low control to monitor the background. 400 μM ATP was prepared in kinase assay buffer and 5 μL of ATP solution was added to each well to start the reaction. The assay plate was incubated at 25° C. for 90 minutes and the reaction was stopped by adding 40 μL of 0.5 M EDTA.
as §1, §2

Sequence of CSK protein (P41240 whole entry): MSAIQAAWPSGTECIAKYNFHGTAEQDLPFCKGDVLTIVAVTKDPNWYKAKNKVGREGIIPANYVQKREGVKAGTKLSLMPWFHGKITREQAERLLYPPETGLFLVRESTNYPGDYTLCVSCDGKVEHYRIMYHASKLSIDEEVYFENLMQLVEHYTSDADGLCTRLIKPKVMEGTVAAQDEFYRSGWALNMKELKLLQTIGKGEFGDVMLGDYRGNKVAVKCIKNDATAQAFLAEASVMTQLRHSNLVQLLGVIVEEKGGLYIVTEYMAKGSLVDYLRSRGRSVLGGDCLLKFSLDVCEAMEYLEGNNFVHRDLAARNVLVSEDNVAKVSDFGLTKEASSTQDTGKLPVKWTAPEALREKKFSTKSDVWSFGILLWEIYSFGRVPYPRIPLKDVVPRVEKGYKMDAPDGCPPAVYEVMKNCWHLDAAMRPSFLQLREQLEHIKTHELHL
Sequence of LCK protein (P06239 whole entry): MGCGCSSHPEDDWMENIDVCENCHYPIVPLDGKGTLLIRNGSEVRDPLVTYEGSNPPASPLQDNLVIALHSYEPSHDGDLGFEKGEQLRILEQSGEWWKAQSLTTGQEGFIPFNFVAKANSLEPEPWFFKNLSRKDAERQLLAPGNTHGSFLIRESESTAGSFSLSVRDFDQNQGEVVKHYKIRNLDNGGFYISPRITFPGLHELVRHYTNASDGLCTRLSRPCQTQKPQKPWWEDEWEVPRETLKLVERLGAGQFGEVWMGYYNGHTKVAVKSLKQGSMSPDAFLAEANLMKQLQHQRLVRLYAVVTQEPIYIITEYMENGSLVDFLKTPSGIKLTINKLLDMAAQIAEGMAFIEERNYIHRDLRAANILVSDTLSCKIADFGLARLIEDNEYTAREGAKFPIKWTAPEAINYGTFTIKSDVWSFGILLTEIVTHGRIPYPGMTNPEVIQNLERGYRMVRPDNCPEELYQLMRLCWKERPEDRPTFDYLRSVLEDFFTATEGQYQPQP

On to `CNc1nccc(-c2c(-c3cccc(NS(=O)(=O)c4c(F)ccc(C)c4F)c3F)nc3cc(OC)ccn23)n1` [Compound 103], for which the results for the IC50 on CSK protein and at LCK protein were 51.8 nM and > 1000 nM, respectively.

Take `CC(C)Oc1ccn2c(-c3ccnc(N)n3)c(-c3cccc(NS(=O)(=O)c4c(F)cccc4F)c3F)nc2c1` [Compound 104]: the IC50 (in general, the concentration at which inhibition is half-maximal) on CSK protein was 134 nM; against LCK protein, > 1000 nM.

With `Nc1nccc(-c2c(-c3cccc(NS(=O)(=O)c4c(F)cccc4F)c3F)nc3cc(C(F)(F)F)ccn23)n1` [Compound 105], the IC50 is 400 nM on CSK protein and > 1000 nM on LCK protein.

On to `CNc1nccc(-c2c(-c3cccc(NS(=O)(=O)c4c(F)ccc(C)c4F)c3F)nc3ccc(F)cn23)n1` [Compound 106], for which the IC50 against CSK protein is 91.7 nM; against LCK protein, > 1000 nM.

On to `CNc1nccc(-c2c(-c3cccc(NS(=O)(=O)c4c(F)ccc(C)c4F)c3F)nc3cc(F)ccn23)n1` [Compound 107], for which the figures for the IC50 at CSK protein and against LCK protein were 113 nM and > 1000 nM, respectively.

In the case of `O=S(=O)(Nc1cccc(-c2nn(C3CCCCC3)cc2-c2ccnc(Nc3ccc(N4CCOCC4)nc3)n2)c1F)c1c(F)cccc1F` [Compound 109], the results for the IC50 at CSK protein and at LCK protein were 4.6 nM and < 100 nM, respectively.

As for `Nc1nccc(-c2cn(C3CCCCC3)nc2-c2cccc(NS(=O)(=O)c3c(F)cccc3F)c2F)n1` [Compound 110], the IC50 on CSK protein is 221 nM; on LCK protein, > 1000 nM.

With `Nc1nccc(-c2sc(N3CCCCC3)nc2-c2cccc(NS(=O)(=O)c3c(F)cccc3F)c2F)n1` [Compound 111], the figures for the IC50 at CSK protein and at LCK protein were 16.4 nM and 100 to 1000 nM, respectively.

For `CNc1nccc(-c2sc(N3CCCC3=O)nc2-c2cccc(NS(=O)(=O)c3c(F)cccc3F)c2F)n1` [Compound 113], the IC50 is 23.8 nM on CSK protein and > 1000 nM against LCK protein.

As for `CNc1nccc(-c2sc(NC)nc2-c2cccc(NS(=O)(=O)c3c(F)cccc3F)c2F)n1` [Compound 114], the IC50 against CSK protein was 18.5 nM; on LCK protein it was 100 to 1000 nM.

With `CNc1nccc(-c2sc(N3CCCCC3)nc2-c2cccc(NS(=O)(=O)c3c(F)cccc3F)c2F)n1` [Compound 115], the IC50 was 7.1 nM at CSK protein and > 1000 nM against LCK protein.

As to `CNc1nccc(-c2sc(N3CCOCC3)nc2-c2cccc(NS(=O)(=O)c3c(F)cccc3F)c2F)n1` [Compound 116], the values for the IC50 against CSK protein and at LCK protein were 13.5 nM and 100 to 1000 nM, respectively.

Consider `CNc1nccc(-c2sc(C(C)(C)C)nc2-c2cccc(NS(=O)(=O)c3c(F)cccc3F)c2F)n1` [Compound 117], for which the results for the IC50 against CSK protein and against LCK protein were 81.5 nM and > 1000 nM, respectively.

In the case of `CN1CCN(c2ccc(Nc3nccc(-c4sc(C(C)(C)C)nc4-c4cccc(NS(=O)(=O)c5c(F)cccc5F)c4F)n3)cn2)CC1` [Compound 119], the results for the IC50 on CSK protein and on LCK protein were 3.7 nM and < 100 nM, respectively.

On to `CC(C)c1nc(-c2cccc(NS(=O)(=O)c3c(F)cccc3F)c2F)c(-c2ccnc(Nc3ccccc3)n2)s1` [Compound 120], for which the IC50 against CSK protein is 20.6 nM; at LCK protein, < 100 nM.

As to `O=S(=O)(Nc1cccc(-c2nc(C3CCCCC3)sc2-c2ccnc(Nc3ccc(N4CCOCC4)nc3)n2)c1F)c1c(F)cccc1F` [Compound 121], the IC50 on CSK protein is 15.5 nM; against LCK protein it was < 100 nM.

On to `Nc1nccc(-c2sc(C3CCNCC3)nc2-c2cccc(NS(=O)(=O)c3c(F)cccc3F)c2F)n1` [Compound 122], for which the results for the IC50 against CSK protein and against LCK protein were 634 nM and 100 to 1000 nM, respectively.

In the case of `CNc1nccc(-c2sc(-c3ccc(F)cn3)nc2-c2cccc(NS(=O)(=O)c3c(Cl)cccc3Cl)c2F)n1` [Compound 123], the IC50 is 23.2 nM at CSK protein and > 1000 nM on LCK protein.

As to `CNc1nccc(-c2sc(N3CCCC3=O)nc2-c2cccc(NS(=O)(=O)c3c(F)ccc(C)c3F)c2F)n1` [Compound 124], the IC50 on CSK protein was 14.9 nM; at LCK protein, > 1000 nM.

For the compound `Cc1ccc(Cl)c(S(=O)(=O)Nc2cccc(-c3nc(-c4ccc(F)cn4)sc3-c3ccnc(N)n3)c2F)c1Cl` [Compound 125], the IC50 is 15.3 nM on CSK protein and > 1000 nM on LCK protein.

With `CNc1nccc(-c2sc(-c3ccc(F)cn3)nc2-c2cccc(NS(=O)(=O)c3c(Cl)ccc(C)c3Cl)c2F)n1` [Compound 126], the IC50 at CSK protein is 30.2 nM; on LCK protein, > 1000 nM.

As for `CNc1nccc(-c2sc(-c3cncc(F)c3)nc2-c2cccc(NS(=O)(=O)c3c(Cl)cccc3Cl)c2F)n1` [Compound 127], the IC50 is 5.8 nM against CSK protein and > 1000 nM at LCK protein.

As to `CNc1nccc(-c2sc(N3CCCC3)nc2-c2cccc(NS(=O)(=O)c3c(F)cccc3F)c2F)n1` [Compound 128], the figures for the IC50 against CSK protein and at LCK protein were 12 nM and > 1000 nM, respectively.

On to `COc1ccn2c(-c3ccnc(NC4CC4)n3)c(-c3cccc(NS(=O)(=O)c4c(F)ccc(C)c4F)c3F)nc2c1` [Compound 129], for which the values for the IC50 on CSK protein and at LCK protein were 7.4 nM and > 1000 nM, respectively.

On to `COc1ccn2c(-c3ccnc(NCCO)n3)c(-c3cccc(NS(=O)(=O)c4c(F)ccc(C)c4F)c3F)nc2c1` [Compound 130], for which the IC50 against CSK protein is 215 nM; against LCK protein, > 1000 nM.

Turning to `Cc1ccc(F)c(S(=O)(=O)Nc2cccc(-c3nc(-c4ccccc4)sc3-c3ccnc(NCCO)n3)c2F)c1F` [Compound 131], the figures for the IC50 at CSK protein and on LCK protein were 13.1 nM and > 1000 nM, respectively.

As for `Nc1nccc(-c2sc(-c3ccc(F)cn3)nc2-c2cccc(NS(=O)(=O)c3c(Cl)cccc3Cl)c2F)n1` [Compound 132], the IC50 at CSK protein was 62 nM; against LCK protein, 100 to 1000 nM.

As for `O=S(=O)(Nc1cccc(-c2nc(-c3ccc(F)cn3)sc2-c2ccnc(NCCO)n2)c1F)c1c(Cl)cccc1Cl` [Compound 133], the half-maximal inhibitory concentration (IC50) was 17.8 nM on CSK protein and > 1000 nM against LCK protein.

Consider `CNc1nccc(-c2sc(-c3ccc(F)cn3)nc2-c2cccc(NS(=O)(=O)c3c(F)cc(Cl)cc3F)c2F)n1` [Compound 134], for which the IC50 on CSK protein is 184 nM; on LCK protein it was > 1000 nM.

Consider `O=S(=O)(Nc1cccc(-c2nc(-c3ccc(F)cn3)sc2-c2ccnc(NC3CC3)n2)c1F)c1c(Cl)cccc1Cl` [Compound 135], for which the IC50 against CSK protein is 15.7 nM; at LCK protein it was > 1000 nM.

In the case of `Cc1ccc(Cl)c(S(=O)(=O)Nc2cccc(-c3nc(-c4ccc(F)cn4)sc3-c3ccnc(NCCO)n3)c2F)c1Cl` [Compound 136], the IC50 was 108 nM at CSK protein and > 1000 nM on LCK protein.

For `Cc1ccc(Cl)c(S(=O)(=O)Nc2cccc(-c3nc(-c4ccc(F)cn4)sc3-c3ccnc(NC4CC4)n3)c2F)c1Cl` [Compound 137], the figures for the IC50 against CSK protein and against LCK protein were 21.3 nM and > 1000 nM, respectively.

Consider `Cc1ccc(Cl)c(S(=O)(=O)Nc2cccc(-c3nc(-c4cncc(F)c4)sc3-c3ccnc(NCCO)n3)c2F)c1Cl` [Compound 138], for which the IC50 was 8.5 nM against CSK protein and > 1000 nM on LCK protein.

With `Cc1ccc(Cl)c(S(=O)(=O)Nc2cccc(-c3nc(-c4cncc(F)c4)sc3-c3ccnc(NC4CC4)n3)c2F)c1Cl` [Compound 139], the IC50 at CSK protein was 2.7 nM; at LCK protein, > 1000 nM.

On to `CNc1nccc(-c2sc(-c3cncc(F)c3)nc2-c2cc(Cl)cc(NS(=O)(=O)c3c(F)cccc3F)c2F)n1` [Compound 140], for which the IC50 was 16.5 nM against CSK protein and > 1000 nM against LCK protein.

For `Cc1ncc(-c2nc(-c3cccc(NS(=O)(=O)c4c(Cl)cccc4Cl)c3F)c(-c3ccnc(N)n3)s2)cn1` [Compound 141], the results for the IC50 against CSK protein and at LCK protein were 6.8 nM and 100 to 1000 nM, respectively.

Values taken from US12427146B2, “C-terminal SRC kinase inhibitors” (INVENTISBIO CO., LTD., priority 2018, dated 2025).
